The source made the active and inactive calls.

The target in assay [1] is T1, Mannose-6-phosphate isomerase (Homo sapiens, UniProt P34949).
T1 sequence (P34949 whole entry): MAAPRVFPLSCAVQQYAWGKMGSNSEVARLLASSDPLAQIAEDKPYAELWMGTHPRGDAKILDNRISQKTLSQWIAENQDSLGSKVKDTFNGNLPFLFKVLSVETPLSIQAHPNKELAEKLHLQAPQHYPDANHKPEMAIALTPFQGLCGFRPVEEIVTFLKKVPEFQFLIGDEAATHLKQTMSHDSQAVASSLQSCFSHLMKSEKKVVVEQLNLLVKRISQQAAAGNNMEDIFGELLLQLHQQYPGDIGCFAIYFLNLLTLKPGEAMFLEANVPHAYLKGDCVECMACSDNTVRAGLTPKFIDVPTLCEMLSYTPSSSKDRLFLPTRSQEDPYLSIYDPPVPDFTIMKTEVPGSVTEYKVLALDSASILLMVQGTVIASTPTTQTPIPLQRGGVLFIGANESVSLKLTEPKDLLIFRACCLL
Nature of the assay: MPI inhibition at elevated mannose 6-phosphate – biochemical, fluorescence intensity, high mannose 6-phosphate, primary screen (AID 1220).

In assay [2] the target is Peroxisome proliferator-activated receptor gamma/Nuclear receptor coactivator 3 (Homo sapiens, UniProt P37231). Format: functional.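 Also: agonist potency for raising coactivator recruitment to the receptor.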
Assay [3] has as its target Peroxisome proliferator-activated receptor gamma/Nuclear receptor coactivator 1 (Homo sapiens, UniProt P37231). Format: functional.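 Also: agonist potency as compounds enhance coactivator SRC-1 recruitment to PPARgamma.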
Assay [4] deals with Peroxisome proliferator-activated receptor gamma/Nuclear receptor coactivator 2 (Homo sapiens, UniProt P37231). The assay is classed as functional.
Peroxisome proliferator-activated receptor gamma/Nuclear receptor coactivator 2, sequence (P37231 whole entry): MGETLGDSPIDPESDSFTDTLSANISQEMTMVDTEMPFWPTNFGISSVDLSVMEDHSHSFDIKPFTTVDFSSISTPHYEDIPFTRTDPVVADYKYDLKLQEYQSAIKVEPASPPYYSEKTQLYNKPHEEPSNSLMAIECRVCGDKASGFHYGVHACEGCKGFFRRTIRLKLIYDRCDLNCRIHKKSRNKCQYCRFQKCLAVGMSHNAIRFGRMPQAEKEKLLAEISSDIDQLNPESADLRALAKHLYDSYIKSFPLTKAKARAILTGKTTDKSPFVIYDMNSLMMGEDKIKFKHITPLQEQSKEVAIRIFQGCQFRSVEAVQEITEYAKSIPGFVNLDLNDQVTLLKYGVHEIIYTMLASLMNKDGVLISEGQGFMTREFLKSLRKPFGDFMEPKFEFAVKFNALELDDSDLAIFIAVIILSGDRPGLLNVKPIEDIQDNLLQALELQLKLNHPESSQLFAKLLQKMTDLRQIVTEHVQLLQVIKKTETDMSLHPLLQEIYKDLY
Peroxisome proliferator-activated receptor gamma/Nuclear receptor coactivator 2, sequence (Q15596 whole entry, further chain): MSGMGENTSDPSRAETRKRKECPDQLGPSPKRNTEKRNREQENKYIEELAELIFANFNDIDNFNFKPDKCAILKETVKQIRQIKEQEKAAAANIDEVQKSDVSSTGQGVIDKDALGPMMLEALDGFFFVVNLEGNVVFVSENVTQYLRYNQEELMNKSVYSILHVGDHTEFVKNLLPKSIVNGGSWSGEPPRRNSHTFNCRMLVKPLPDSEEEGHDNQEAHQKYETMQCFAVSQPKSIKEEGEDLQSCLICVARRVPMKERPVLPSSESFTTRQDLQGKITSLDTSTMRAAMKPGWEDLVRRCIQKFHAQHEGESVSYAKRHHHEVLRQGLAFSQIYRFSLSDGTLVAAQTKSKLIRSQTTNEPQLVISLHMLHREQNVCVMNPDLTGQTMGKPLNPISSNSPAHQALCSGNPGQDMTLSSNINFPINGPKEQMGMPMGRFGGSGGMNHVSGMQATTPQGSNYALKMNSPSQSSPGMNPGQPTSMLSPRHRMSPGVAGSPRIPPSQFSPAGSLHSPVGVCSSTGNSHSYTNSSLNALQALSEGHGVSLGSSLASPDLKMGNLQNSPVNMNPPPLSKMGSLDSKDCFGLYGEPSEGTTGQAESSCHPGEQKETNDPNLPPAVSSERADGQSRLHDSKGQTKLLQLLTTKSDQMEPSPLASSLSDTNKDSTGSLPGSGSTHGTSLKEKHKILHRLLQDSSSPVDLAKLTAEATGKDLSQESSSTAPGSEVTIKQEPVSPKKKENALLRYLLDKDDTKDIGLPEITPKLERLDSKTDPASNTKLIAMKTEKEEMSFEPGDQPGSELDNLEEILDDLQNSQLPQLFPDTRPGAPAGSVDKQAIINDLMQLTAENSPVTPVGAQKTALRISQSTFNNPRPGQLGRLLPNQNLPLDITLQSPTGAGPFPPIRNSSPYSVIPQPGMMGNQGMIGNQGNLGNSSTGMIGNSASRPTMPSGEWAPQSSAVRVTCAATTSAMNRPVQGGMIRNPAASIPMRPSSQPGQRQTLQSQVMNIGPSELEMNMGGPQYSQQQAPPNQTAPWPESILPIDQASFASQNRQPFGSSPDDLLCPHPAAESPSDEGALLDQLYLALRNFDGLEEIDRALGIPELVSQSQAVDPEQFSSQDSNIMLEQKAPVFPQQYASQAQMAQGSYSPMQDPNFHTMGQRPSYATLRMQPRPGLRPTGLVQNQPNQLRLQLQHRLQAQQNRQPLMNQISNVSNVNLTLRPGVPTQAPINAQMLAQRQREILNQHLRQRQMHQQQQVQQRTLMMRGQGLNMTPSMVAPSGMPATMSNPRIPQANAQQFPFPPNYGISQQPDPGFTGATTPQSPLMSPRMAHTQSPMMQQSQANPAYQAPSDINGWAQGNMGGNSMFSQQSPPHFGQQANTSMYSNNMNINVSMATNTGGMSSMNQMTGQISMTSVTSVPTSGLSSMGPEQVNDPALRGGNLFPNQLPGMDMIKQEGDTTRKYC
Assay [5] is described as follows: reduced cellular PGC1a acetyl-lysine signal – cell-based, cherry-picked samples, dose response (AID 720514).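 Also: potency may reflect raised or lowered acetylation signal.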 Format: functional.
In another assay the target is Cytochrome P450 2C9 (Homo sapiens, UniProt P11712).
Assay [6] addresses Eukaryotic translation initiation factor 4E (Mus musculus, UniProt P63073). In words: blockers of eIF4G binding by eIF4E – biochemical, TR-FRET, dose response (AID 855).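 Also: potency for disrupting eIF4E binding to eIF4GI seen as loss of FRET.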 Format: functional. (In TR-FRET formats the signal depends on donor and acceptor labels being close together.)
Another assay addresses Cytochrome P450 2C19 (Homo sapiens, UniProt P33261). In words: Cytochrome panel assay with activity outcomes. Panel member name: p450-cyp2c19 Compounds with AC50 equal or less than 10 uM are considered active. Format: functional. Conditions: read-out: AC50.
Assay [7] is described as follows: HEK-293T cell viability reduction – luminescence, B-cell screen hits, cytotoxicity control for BCR NF-kB inhibitor project, dose response (AID 489021).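 Also: HEK-293T cells carrying an NF-kB luciferase reporter; cells exposed to compound for about 14 hours before viability readout.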 Format: functional, cell-based.
The target in a further assay is T2, Caspase-6 (Homo sapiens, UniProt P55212).
T2 sequence (P55212 whole entry): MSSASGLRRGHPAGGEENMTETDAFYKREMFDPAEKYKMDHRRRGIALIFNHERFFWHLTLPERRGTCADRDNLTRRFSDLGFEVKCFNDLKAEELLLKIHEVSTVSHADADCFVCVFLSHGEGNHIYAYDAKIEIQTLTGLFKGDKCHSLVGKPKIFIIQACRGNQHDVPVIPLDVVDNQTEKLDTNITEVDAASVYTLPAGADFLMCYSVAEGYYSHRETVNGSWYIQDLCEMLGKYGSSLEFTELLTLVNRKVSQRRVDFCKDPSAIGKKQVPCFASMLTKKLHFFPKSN
In words: inhibition of CASP6 peptide cleavage – biochemical, VEID-R110 fluorescence, cherry-pick, dose response (AID 720632).

In assay [8] the test system is BJ. In words: BJ-TERT-LT-ST fibroblast viability loss – cell-based, RAS-independent, luminescence, dose response (AID 1935).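 Also: BJ fibroblasts immortalized with TERT plus LT and ST oncogenes.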 The following applies: Homo sapiens. Format: functional.
Assay [9] in a line: DRD fibroblast viability loss – cell-based, non-viral oncogenic, luminescence, dose response (AID 1934). The assay is classed as functional. The following applies: Homo sapiens.
Assay [10] concerns BJ. Nature of the assay: BJ-TERT fibroblast viability loss – cell-based, RAS-independent, luminescence, dose response (AID 1933). Conditions: Homo sapiens. The assay is classed as functional.
Assay [11] deals with BJ. In words: cells. The assay is classed as functional, cell-based. The following applies: Homo sapiens.
The target in assay [12] is Luciferin 4-monooxygenase (Photinus pyralis, UniProt P08659). In words: inhibition of purified Photinus pyralis luciferase – biochemical, luminescence, dose response (AID 1891).
Assay [13] in a line: Luminescence Cell-Based Dose Confirmation HTS to Identify Inhibitors of Platelet Dense Granule Release. [Related pubchem assays: 1663 (Primary HTS), 1678 (Summary of Project)]. The assay is classed as functional.
A short description of assay [14]: Counterscreen for activators of the function of SWI/SNF related, matrix associated, actin dependent regulator of chromatin, subfamily a, member 2 (SMARCA2, BRM): Luminescence-based cell-based high throughput dose response assay to identify non-selective compounds using the VP16 reporter assay. The assay is classed as functional.
For a further assay, the target named is Beta-galactosidase (Escherichia coli, UniProt Q8VNN2). Nature of the assay: Dose response counterscreen for EBI2 assay utilizing the enzyme, b-galactosidase. The assay is classed as functional.
Beta-galactosidase, sequence (Q8VNN2 whole entry): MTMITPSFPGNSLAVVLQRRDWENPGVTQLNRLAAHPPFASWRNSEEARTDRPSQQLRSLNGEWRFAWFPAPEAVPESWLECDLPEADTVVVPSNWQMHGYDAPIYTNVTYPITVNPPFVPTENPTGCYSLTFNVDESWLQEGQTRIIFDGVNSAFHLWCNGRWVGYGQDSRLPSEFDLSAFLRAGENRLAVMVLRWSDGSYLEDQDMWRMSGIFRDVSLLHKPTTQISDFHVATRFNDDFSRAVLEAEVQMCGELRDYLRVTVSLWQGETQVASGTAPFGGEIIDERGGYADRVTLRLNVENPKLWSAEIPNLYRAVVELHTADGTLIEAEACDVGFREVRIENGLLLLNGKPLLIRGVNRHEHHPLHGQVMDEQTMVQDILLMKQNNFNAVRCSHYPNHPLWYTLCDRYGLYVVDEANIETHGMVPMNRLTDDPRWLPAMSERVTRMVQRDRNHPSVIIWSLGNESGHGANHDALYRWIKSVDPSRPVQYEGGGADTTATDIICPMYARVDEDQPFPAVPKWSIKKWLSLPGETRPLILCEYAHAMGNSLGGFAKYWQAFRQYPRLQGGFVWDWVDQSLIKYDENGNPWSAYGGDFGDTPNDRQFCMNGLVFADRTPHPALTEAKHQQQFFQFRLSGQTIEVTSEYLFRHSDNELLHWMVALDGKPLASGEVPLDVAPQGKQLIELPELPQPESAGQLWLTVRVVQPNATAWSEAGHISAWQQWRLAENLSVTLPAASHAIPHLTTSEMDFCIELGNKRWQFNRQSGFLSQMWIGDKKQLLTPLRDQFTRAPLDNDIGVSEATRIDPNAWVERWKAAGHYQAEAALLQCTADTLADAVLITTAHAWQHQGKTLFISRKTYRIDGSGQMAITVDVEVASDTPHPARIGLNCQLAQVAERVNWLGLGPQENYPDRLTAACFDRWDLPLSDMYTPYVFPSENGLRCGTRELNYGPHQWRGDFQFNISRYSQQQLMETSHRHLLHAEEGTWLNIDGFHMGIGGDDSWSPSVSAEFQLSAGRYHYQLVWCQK
Assay [15] concerns the target T3, Heat shock factor protein 1 (Mus musculus, UniProt P38532).
T3 sequence (P38532 whole entry): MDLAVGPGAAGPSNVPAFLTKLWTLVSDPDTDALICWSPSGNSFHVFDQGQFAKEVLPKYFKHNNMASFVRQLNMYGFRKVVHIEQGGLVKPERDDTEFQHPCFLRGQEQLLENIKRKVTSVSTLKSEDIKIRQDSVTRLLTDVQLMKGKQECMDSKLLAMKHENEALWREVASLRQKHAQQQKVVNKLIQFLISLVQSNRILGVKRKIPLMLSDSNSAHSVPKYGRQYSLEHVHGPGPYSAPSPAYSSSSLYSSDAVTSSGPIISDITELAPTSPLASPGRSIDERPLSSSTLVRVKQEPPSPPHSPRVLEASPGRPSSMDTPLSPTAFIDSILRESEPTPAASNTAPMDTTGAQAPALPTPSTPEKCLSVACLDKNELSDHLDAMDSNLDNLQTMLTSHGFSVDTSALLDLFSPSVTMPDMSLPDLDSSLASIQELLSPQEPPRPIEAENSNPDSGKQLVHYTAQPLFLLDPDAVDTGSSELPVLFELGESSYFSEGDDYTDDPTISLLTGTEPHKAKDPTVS
Nature of the assay: enhancement of HSF1-driven luciferase signal – cell-based, NIH3T3, luminescence, dose retest, confirmation (AID 435004).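 Also: stress induced by proteasome inhibitor MG132 added 30 min after compound; luciferase reporter driven by HSF1 response element in NIH3T3 cells; actives raise luminescence as potentiators of the MG132 stress response.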 The assay is classed as functional.

The target of assay [16] is SWI/SNF-related matrix-associated actin-dependent regulator of chromatin subfamily A member 2 (Homo sapiens, UniProt P51531). In words: Luminescence-based cell-based high throughput dose response assay to identify activators of the function of SWI/SNF related, matrix associated, actin dependent regulator of chromatin, subfamily a, member 2 (SMARCA2, BRM). The assay is classed as functional.

In assay [17] the target is T4, Corticotropin-releasing factor receptor 2/Corticotropin-releasing factor-binding protein (Homo sapiens, UniProt P24387+Q13324).
T4 sequence (Q13324 whole entry): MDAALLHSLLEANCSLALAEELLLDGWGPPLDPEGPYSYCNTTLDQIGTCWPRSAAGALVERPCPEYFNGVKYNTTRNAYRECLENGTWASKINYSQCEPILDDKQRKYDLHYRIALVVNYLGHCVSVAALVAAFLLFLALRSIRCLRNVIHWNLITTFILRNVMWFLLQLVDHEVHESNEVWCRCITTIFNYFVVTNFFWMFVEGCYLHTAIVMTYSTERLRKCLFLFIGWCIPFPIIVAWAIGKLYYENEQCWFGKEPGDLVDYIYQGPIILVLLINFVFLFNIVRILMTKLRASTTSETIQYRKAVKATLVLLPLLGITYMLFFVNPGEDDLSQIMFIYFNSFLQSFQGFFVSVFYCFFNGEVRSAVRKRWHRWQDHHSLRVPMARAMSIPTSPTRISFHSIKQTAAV
T4 sequence (P24387 whole entry): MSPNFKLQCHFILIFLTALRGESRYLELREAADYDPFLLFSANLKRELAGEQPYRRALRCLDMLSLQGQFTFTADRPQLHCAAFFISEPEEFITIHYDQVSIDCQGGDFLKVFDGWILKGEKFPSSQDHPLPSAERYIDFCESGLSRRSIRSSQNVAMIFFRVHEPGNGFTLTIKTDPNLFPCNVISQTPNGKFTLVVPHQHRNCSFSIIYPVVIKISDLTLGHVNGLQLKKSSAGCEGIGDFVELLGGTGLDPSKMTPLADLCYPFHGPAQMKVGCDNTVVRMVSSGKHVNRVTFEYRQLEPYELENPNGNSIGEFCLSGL
In words: Dose Response confirmation of uHTS hits for small molecule antagonists of the CRF-binding protein and CRF-R2 receptor complex. Format: functional. The following applies: read-out: IC50_Mean.

The target of assay [18] is T4, Corticotropin-releasing factor receptor 2/Corticotropin-releasing factor-binding protein. Nature of the assay: activators of CRF receptor 2 with binding protein – uHTS hits, confirmation (AID 602473). Format: functional. Conditions: read-out: EC50_Mean.
Assay [19] can be described thus: HEK-293T viability loss after treatment – luminescence, T-cell screen hits, cytotoxicity control for TCR NF-kB inhibitor project, dose response (AID 489026).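 Also: cells exposed to compound about 14 hours before the viability readout.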 Format: functional, cell-based.
Assay [20] is described as follows: luciferase reporter signal suppression in cells – H4 neuroglioma cells, luminescence, dose response (AID 1990). Format: functional, cell-based. (In a reporter assay the amount or activity of a reporter protein is the signal.)
Assay [21] is described as follows: Luminescence Cell-Based Dose Response HTS to Identify Inhibitors of 5'UTR Stem-Loop Driven Prion Protein mRNA Translation in H4 Neuroglioblastoma Cells. [Related pubchem assays: 1827 (Project Summary), 1813 (Primary HTS)]. The assay is classed as functional.
Assay [22] is described as follows: alpha-synuclein stem-loop luciferase translation blockers – H4 neuroglioma cells, luminescence, confirmation (AID 1988). The assay is classed as functional, cell-based.

Peroxisome proliferator-activated receptor gamma/Nuclear receptor coactivator 1, sequence (P37231 whole entry): as the sequence (P37231 whole entry) above
Peroxisome proliferator-activated receptor gamma/Nuclear receptor coactivator 1, sequence (Q15788 whole entry, further chain): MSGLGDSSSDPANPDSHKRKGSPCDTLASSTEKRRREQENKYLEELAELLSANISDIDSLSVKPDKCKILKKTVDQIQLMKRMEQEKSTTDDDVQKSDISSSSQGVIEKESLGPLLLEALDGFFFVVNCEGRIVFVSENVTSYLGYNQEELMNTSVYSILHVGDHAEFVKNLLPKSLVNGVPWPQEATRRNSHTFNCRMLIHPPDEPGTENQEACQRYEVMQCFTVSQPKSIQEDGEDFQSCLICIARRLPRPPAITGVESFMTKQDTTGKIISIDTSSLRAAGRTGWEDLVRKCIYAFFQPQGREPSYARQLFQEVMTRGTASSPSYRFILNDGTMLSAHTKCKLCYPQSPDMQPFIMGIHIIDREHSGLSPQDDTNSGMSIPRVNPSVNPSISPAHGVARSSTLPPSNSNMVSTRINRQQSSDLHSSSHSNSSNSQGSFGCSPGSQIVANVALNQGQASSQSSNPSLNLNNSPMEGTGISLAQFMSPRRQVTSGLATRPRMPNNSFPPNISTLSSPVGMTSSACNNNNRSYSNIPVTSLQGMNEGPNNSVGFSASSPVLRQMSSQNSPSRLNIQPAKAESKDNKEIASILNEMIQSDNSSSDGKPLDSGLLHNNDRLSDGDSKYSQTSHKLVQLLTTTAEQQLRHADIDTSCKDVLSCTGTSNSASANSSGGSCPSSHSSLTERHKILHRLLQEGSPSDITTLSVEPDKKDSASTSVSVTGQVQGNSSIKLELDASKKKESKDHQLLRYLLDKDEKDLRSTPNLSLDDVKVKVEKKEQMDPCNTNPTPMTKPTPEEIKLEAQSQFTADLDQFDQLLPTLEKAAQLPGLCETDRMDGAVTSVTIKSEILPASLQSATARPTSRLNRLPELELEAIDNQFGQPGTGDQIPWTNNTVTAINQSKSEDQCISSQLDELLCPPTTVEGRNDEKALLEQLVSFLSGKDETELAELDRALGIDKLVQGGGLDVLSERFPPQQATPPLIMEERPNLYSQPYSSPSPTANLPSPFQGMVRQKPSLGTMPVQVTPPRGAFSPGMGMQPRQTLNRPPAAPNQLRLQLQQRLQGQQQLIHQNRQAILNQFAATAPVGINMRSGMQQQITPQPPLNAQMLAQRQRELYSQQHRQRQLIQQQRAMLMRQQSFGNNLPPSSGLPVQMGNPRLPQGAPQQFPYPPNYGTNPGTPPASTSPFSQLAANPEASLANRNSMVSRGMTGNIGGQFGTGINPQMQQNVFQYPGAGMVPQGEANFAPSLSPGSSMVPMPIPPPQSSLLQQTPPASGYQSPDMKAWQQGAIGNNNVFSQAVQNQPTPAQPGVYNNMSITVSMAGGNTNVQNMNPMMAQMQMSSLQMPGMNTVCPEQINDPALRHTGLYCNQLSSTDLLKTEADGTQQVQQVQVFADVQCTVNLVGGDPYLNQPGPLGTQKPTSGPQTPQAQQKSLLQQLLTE

For `CN(C)/C=C1\Oc2ccc3ccccc3c2C1=O`, the IC50 in [1] is > 50 µM (not active).
`CN(CC(=O)Nc1ccc(N2CCOCC2)cc1)Cc1c(O)ccc2ccccc12`: the IC50 in assay [1] is listed as > 50 µM (not active).
Consider `Clc1cccc2sc(N3CCN(c4ccccc4)CC3)nc12`, for which the EC50 in assay [2], in [3] and in [4] was > 79.4 µM (not active) throughout.
As usually defined, the AC50 is the concentration at which the activity in the assay is half-maximal. With `C[C@@H]1CN([C@@H](C)CO)C(=O)c2cc(NC(=O)CCCN(C)C)ccc2O[C@@H](C)CCCCO[C@@H]1CN(C)Cc1ccc(C(F)(F)F)cc1`, the AC50 in assay [5] was 37.9 µM (active).
On to `CC(C)CC(=O)N1CCC(N2CCN(c3ccccc3)CC2)CC1`, for which the values for the AC50 on Cytochrome P450 2C9 and at Cytochrome P450 2C19 were 14.1 µM (inconclusive) and 15.8 µM (inconclusive), respectively. Also, in [6], the IC50 was > 64 µM (inactive).
Consider `Cc1cc(OCC(=O)NC2CC2)c2c(C)c(C)c(=O)oc2c1`, for which the IC50 in assay [7] is > 80 µM (inactive).
As to `Cc1ccc2cc(N)ccc2n1`, the AC50 at Caspase-6 is 14.2 µM (active). For the same compound, the IC50 in assay [1] is on record as > 50 µM (not active).
Take `O=C(c1cccc([N+](=O)[O-])c1)c1ccccn1`: the EC50 (in the assay with BJ [8]; in assay [9]; with BJ [10]; in the assay on BJ [11]) was > 150 µM (not active) in each case.
For `O=C(C[C@H]1CC[C@@H](NC(=O)c2ccccc2)[C@H](CO)O1)Nc1ccc(-c2ccccc2)cc1`, in [5], the AC50 is 4.76 µM (active).
`COc1ccc(OC)c2c1s/c(=N\C(=O)C(C)(C)C)n2C`: the EC50 in assay [2], in [3] and in [4] was > 79.4 µM (not active) in each case.
`Fc1cccc(-c2ccc([C@@H]3[C@@H]4CN(Cc5nccs5)C[C@H]3N4)cc2)c1`: in [5], the AC50 is 17.6 µM (active).
Take `CCOc1cc(/C=N\Nc2nc(Nc3ccccc3)nc(N3CCOCC3)n2)ccc1OC(=O)c1ccco1`: in assay [7], the IC50 was > 80 µM (inactive).
On to `O=C(Cc1sc(-c2ccccc2Cl)nc1-c1ccccc1)Nc1ccccc1`, for which the EC50 in assay [2] was 11.3 µM (not active); in [3], 10 µM (not active); in assay [4] it was 6.82 µM (active).
As to `Cc1ccc(/C=C2\SC(=S)N(CCC(=O)NNC(=O)c3ccncc3)C2=O)cc1`, the IC50 in assay [7] is > 80 µM (inactive).
Same read-out and setting: the result for `Cc1cc(OCC(=O)Nc2ccc(CCO)cc2)c2c(C)c(C)c(=O)oc2c1` reads > 80 µM (inactive).
For the compound `CC1(C)Cc2c(sc3nc(NCCN4CCOCC4)n4ncnc4c23)CO1`, the EC50 in assay [12] is > 112 µM (not active); in [13], 10.8 µM (active). In addition, the IC50 in assay [6] is > 64 µM (inactive).
With `Cc1ccc(C(=O)CNc2ccc(Cl)cc2)cc1`, the EC50 in [14] was > 91.2 µM (inactive); in assay [15], > 260 µM (inactive); in assay [16] it was > 91.2 µM (inactive). At Beta-galactosidase, the IC50 was 130 µM (inactive).
`CCC(C)c1ccc(NC(=S)Nc2ccc(OC)cc2)cc1` (stereo unspecified): the IC50 at Beta-galactosidase is > 80 µM (inactive); in assay [17] it was > 47.1 µM (inactive). Further, the EC50 in assay [18] is > 53 µM (inactive).
Consider `C[C@H](CO)N1C[C@H](C)[C@H](CN(C)Cc2ccccc2)Oc2cc(Br)ccc2S1(=O)=O`, for which the AC50 in assay [5] is 25.8 µM (active).
In the case of `COc1ccc(-n2nnnc2-c2cccc(OC)c2)cc1`, in assay [19], the IC50 was > 80 µM (inactive). The EC50 is 4.68 µM (inconclusive) in [20]; 2.71 µM (active) in the assay on BJ [8]; 2.04 µM (active) in assay [9]; 8.48 µM (active) with BJ [10]; 11.6 µM (active) in [21]; 109 µM (active) in the assay with BJ [11]. The EC50 in assay [22] is 824 nM (inconclusive).

The record behind these values is ChEMBL document CHEMBL1201862, “PubChem BioAssay data set” (2004).
